Assay [1] concerns Wnt/β-catenin signal transduction (β-catenin activity) in SW480 cell line. Briefly: Cell based Wnt agonist screening system (Tcf/Lef firefly luciferase reporter) in SW480 cell line. More on the design: species or system human. As to conditions: Conc. 20000 μM, control that defines 100%. An excerpt: (§1) Two kinds of human cancer cell lines HEK293 and SW480 were used to determine the ex vivo activity of the compounds according to one exemplary embodiment of the present invention.
(§2) In order to determine the activity of the wnt/β-catenin signal transduction in each cancer cell line, the present inventors introduced a gene as shown in FIG. 1 into cells, the gene having binding sites (5× TCFs) of Tcf/Lef transcription regulation protein to which β-catenin binds and having a firefly fluorescent protein (firefly luciferase) as a marker that can determine the activity of the Tcf/Lef transcription regulation protein. Then, the present inventors constructed a cell based Wnt agonist screening system by treating the gene-introduced cells with G418 to obtain a single clone of a cell line whose Tcf/Lef transcription regulation protein is continuously expressed due to the introduction of the gene. […]
(§3) When the prepared cell line was treated with lithium chloride (LiCl) that is a positive control in the cell based Wnt agonist screening system as the control for determining the Wnt agonist activity of the isoxazole derivative according to one exemplary embodiment of the present invention, an expression level of the fluorescent protein was measured, and plotted in a graph as shown in FIG. 3. […]

For assay [2], the system named is Wnt/β-catenin signal transduction (β-catenin activity) in HEK293 cell line. Nature of the assay: Cell based Wnt agonist screening system (Tcf/Lef firefly luciferase reporter) in HEK293 cell line. More on the design: species or system human.
Description: as §1, §2, §3
In general terms: In a reporter assay the amount or activity of a reporter protein is the signal.

In the case of `[Cl-].[Li+]` [LiCl, lithium chloride, reference compound], the “Relative Max. Activity (%)” value in assay [1] is given as 100%; in assay [2] (Conc. 20000 μM, control that defines 100%), 100%.

Regarding `Nc1ccc(-c2cc(C(=O)NCCCn3ccnc3)no2)cc1` [Derivative 48, 5-(4-amino-phenyl)-isoxazole-3-carboxylic acid (3-imidazol-1-yl-propyl)-amide], in assay [2] (Homo sapiens, Conc. 120 μM, 24-hour treatment, relative to LiCl 20 mM = 100%, read-out: Relative Max. Activity (%)), the Emax at 120 µM turned out to be 246%.
